Reference: patent publication US20030232013A1, “Therapeutic and diagnostic targeting of cancers cells with tumor homing peptides” (priority 2002, published 2003)
Like-named read-outs stand apart in the source and are kept apart here. Bridge positions count the residues as written; N and C are the ends. Square brackets hold non-standard residues; d marks the D form. Peptide text beside a SMILES is read from it. Ahx = NCCCCCC(=O)O

Legend:
[1] = test system: T47D (Human) breast cancer cells; assay: In vitro competitive cell binding assay, T47D
Experimental: (§1) In Vitro Competitive Cell Binding Assay. The IC50 values of both metallated and non-metallated STh conjugates were determined in human cancer cells by a competitive displacement cell binding assay using ^125I-STh (^125I-Tyr^5-Phe^19-STh or ^125I-Tyr^5-6-Ahx-Phe^19-STh). […] After the incubation, the reaction medium was aspirated and cells were washed three times with media. The radioactivity bound to the cells was counted in a Packard Riastar gamma counting system. The ^125I-STh bound to cells was plotted vs. increasing concentrations of STh conjugate to determine the respective IC50 values (Table 3). For statistical considerations, three separate in vitro cell binding experiments with each conjugate were performed in duplicate.

[2] = test system: OVCAR-3 (Human) ovarian cancer cells; assay: In vitro competitive cell binding assay, OVCAR-3; details: competitive binding vs. ^125I-Tyr^5-6-Ahx-Phe^19-STh or ^125I-Tyr^5-Phe^19-STh
Experimental: as §1

[3] = test system: MB-468 (Human) breast cancer cells; assay: In vitro competitive cell binding assay, MB-468; details: competitive binding vs. ^125I-Tyr^5-6-Ahx-Phe^19-STh or ^125I-Tyr^5-Phe^19-STh
Experimental: as §1

[4] = test system: MB-231 (Human) breast cancer cells; assay: In vitro competitive cell binding assay, MB-231
Experimental: as §1

[5] = test system: H69 (Human) lung cancer cells; assay: In vitro competitive cell binding assay, H69; details: competitive binding vs. ^125I-Tyr^5-6-Ahx-Phe^19-STh or ^125I-Tyr^5-Phe^19-STh
Experimental: as §1

[6] = test system: CAPAN-1 (Human) pancreatic cancer cells; assay: In vitro competitive cell binding assay, CAPAN-1; details: competitive binding vs. ^125I-Tyr^5-6-Ahx-Phe^19-STh or ^125I-Tyr^5-Phe^19-STh
Experimental: as §1

[7] = test system: CFPAC-1 (Human) pancreatic cancer cells; assay: In vitro competitive cell binding assay, CFPAC-1; details: competitive binding vs. ^125I-Tyr^5-6-Ahx-Phe^19-STh or ^125I-Tyr^5-Phe^19-STh
Experimental: as §1

[8] = test system: MCF-7 (Human) breast cancer cells; assay: In vitro competitive cell binding assay, MCF-7; details: competitive binding vs. ^125I-Tyr^5-6-Ahx-Phe^19-STh or ^125I-Tyr^5-Phe^19-STh
Experimental: as §1

[9] = test system: A375 (Human) melanoma cells; assay: In vitro competitive cell binding assay, A375; details: competitive binding vs. ^125I-Tyr^5-6-Ahx-Phe^19-STh or ^125I-Tyr^5-Phe^19-STh
Experimental: as §1

[10] = test system: PC-3 (Human) prostate cancer cells; assay: In vitro competitive cell binding assay, PC-3; details: competitive binding vs. ^125I-Tyr^5-6-Ahx-Phe^19-STh or ^125I-Tyr^5-Phe^19-STh
Experimental: as §1

Row | SMILES | IC50 ([1]; competitive binding vs ^125-Tyr-6-Ahx-Phe^19-STh, read-out: IC50, T-47D (FIG. 5)) | IC50 [2] | IC50 [3] | IC50 ([4]; competitive binding vs ^125-Tyr-6-Ahx-Phe^19-STh, read-out: IC50, MB-231 (FIG. 5)) | IC50 [5] | IC50 [6] | IC50 [7] | IC50 ([1]; competitive binding vs. ^125I-Tyr^5-6-Ahx-Phe^19-STh or ^125I-Tyr^5-Phe^19-STh, read-out: In vitro IC50, Breast T47D (Human)) | IC50 [8] | IC50 [9] | IC50 ([4]; competitive binding vs. ^125I-Tyr^5-6-Ahx-Phe^19-STh or ^125I-Tyr^5-Phe^19-STh, read-out: In vitro IC50, Breast MB-231 (Human)) | IC50 [10]
1 | CC(C)C[C@@H]1NC(=O)[C@H](CCC(=O)O)NC(=O)[C@@H]2CSSC[C@@H]3NC(=O)[C@H](C)NC(=O)[C@@H]4CCCN4C(=O)[C@H](CC(N)=O)NC(=O)[C@H](CSSC[C@H](NC(=O)[C@H](Cc4ccc(O)cc4)NC(=O)[C@H](CC(N)=O)NC(=O)[C@H](CO)NC(=O)[C@H](CO)NC(=O)[C@@H](N)CC(N)=O)C(=O)N2)NC(=O)[C@H](CSSC[C@@H](C(=O)N[C@@H](Cc2ccccc2)C(=O)O)NC(=O)CNC(=O)[C@H]([C@@H](C)O)NC3=O)NC1=O [Phe^19-STh] (H-NSSNYCCELCCNPACTGCF-OH; disulfide 6-11, 7-15, 10-18) | 3 ± 1.7 nM | 3.2 nM | 2.8 nM | 5.2 ± 1.3 nM | 4.5 ± 1.7 nM | – | – | – | – | – | – | –
2 | CC(C)C[C@@H]1NC(=O)[C@H](CCC(=O)O)NC(=O)[C@@H]2CSSC[C@@H]3NC(=O)[C@H](C)NC(=O)[C@@H]4CCCN4C(=O)[C@H](CC(N)=O)NC(=O)[C@H](CSSC[C@H](NC(=O)[C@H](Cc4ccc(O)cc4)NC(=O)[C@H](CC(N)=O)NC(=O)[C@H](CO)NC(=O)[C@H](CO)NC(=O)[C@H](CC(N)=O)NC(=O)CCCCCN)C(=O)N2)NC(=O)[C@H](CSSC[C@@H](C(=O)N[C@@H](Cc2ccccc2)C(=O)O)NC(=O)CNC(=O)[C@H]([C@@H](C)O)NC3=O)NC1=O [6-Ahx-Phe^19-STh] (H-[Ahx]NSSNYCCELCCNPACTGCF-OH; disulfide 7-12, 8-16, 11-19 (inferred); N-terminus assumed) | – | – | – | – | – | 4.5 nM | 4.4 ± 1.5 nM | 5.6 ± 0.9 nM | 4.6 ± 2.8 nM | 6.4 ± 2.9 nM | 5.2 ± 1.5 nM | 3.1 nM
